# Measurements reported in PubChem BioAssay (NCI).
# “And” between values parts separate entries of the source, which are not always exact repeats. Equal entries are not always repeated.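 In this assay, cells in 96-well plates receive the compound at five concentrations for 48 hours. Endpoints are linearly interpolated between the surrounding concentrations. At the GI50, growth is halved. TGI denotes the concentration required for complete inhibition of growth.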
# Tests used:
# Assay in all cases: inhibition of tumour cell growth, NCI panel, 48 h
# A498 renal = system: A498 renal
# CAKI-1 renal = system: CAKI-1 renal
# CCRF-CEM leukemia = system: CCRF-CEM leukemia
# HL-60(TB) leukemia = system: HL-60(TB) leukemia
# NCI-H460 lung = system: NCI-H460 lung
# NCI-H522 lung = system: NCI-H522 lung
# SF-268 CNS = system: SF-268 CNS
# SK-MEL-2 melanoma = system: SK-MEL-2 melanoma
# SN12C renal = system: SN12C renal
# SW-620 colon = system: SW-620 colon
Structure (SMILES),GI50 (A498 renal),TGI (A498 renal),GI50 (CAKI-1 renal),TGI (CAKI-1 renal),GI50 (CCRF-CEM leukemia),TGI (CCRF-CEM leukemia),GI50 (HL-60(TB) leukemia),TGI (HL-60(TB) leukemia),GI50 (NCI-H460 lung),TGI (NCI-H460 lung),GI50 (NCI-H522 lung),TGI (SF-268 CNS),GI50 (SK-MEL-2 melanoma),TGI (SK-MEL-2 melanoma),GI50 (SN12C renal),TGI (SN12C renal),GI50 (SW-620 colon),TGI (SW-620 colon),TGI (NCI-H522 lung),GI50 (SF-268 CNS)
COc1ccccc1NC(=O)N/C(N)=N/c1nc2ccccc2s1,0.24 µM,> 100 µM,0.062 µM,> 100 µM,0.111 µM,> 100 µM,0.0827 µM,0.436 µM,0.115 µM,> 100 µM,0.025 µM,> 100 µM,0.446 µM,> 100 µM,0.307 µM,> 100 µM,0.0531 µM,> 100 µM,,
CCC1N2CCCCC2[C@@H]2c3[nH]c4ccccc4c3CCN12 (some centres not stated),,> 100 µM,,> 100 µM,,> 100 µM,,> 100 µM,,> 100 µM,,> 100 µM,,> 100 µM,,> 100 µM,,> 100 µM,> 100 µM,
Cc1cc(C)c(S(=O)(=O)Oc2ccccc2[N+](=O)[O-])c(C)c1,1.21 µM,12.5 µM,0.956 µM,> 19.9 µM,2.15 µM,> 100 µM,0.367 µM,2.5 µM,2.4 µM,> 100 µM,1.26 µM,> 100 µM,3.41 µM,> 100 µM,14.7 µM,> 100 µM,0.583 µM,> 100 µM,6.56 µM,4.57 µM
[O-]c1c(-c2ccccc2)[se]c(-c2ccccc2)[n+]1-c1ccccc1,,26.7 µM,,34.1 µM,,31.8 µM,,5.51 µM,,38.7 µM,,21.6 µM,,19.8 µM,,17.9 µM,,34.2 µM,8.42 µM,
O=C(O/N=C1/CCC/C1=C\c1ccccc1)c1ccc(Cl)cc1,,> 100 µM,,> 82.4 µM,,> 100 µM,,> 100 µM,,> 31.6 µM,,> 100 µM,,> 100 µM,,> 100 µM,,> 100 µM,> 100 µM,
CCN(CCc1ccc(F)cc1)c1ccc(CO)c(Cl)c1,0.12 µM,0.268 µM,4.23 µM,17.2 µM,15.6 µM,47.3 µM,9.01 µM,30.3 µM,6.3 µM,21.6 µM,10.9 µM,28.6 µM,7.29 µM,21.1 µM,9.27 µM,23 µM,8.84 µM,24.2 µM,25.4 µM,14.3 µM
CC(C)(C)c1cc2c(OP(c3ccccc3)c3ccccc3)c(c1)Cc1cc(C(C)(C)C)cc(c1OP(c1ccccc1)c1ccccc1)Cc1cc(C(C)(C)C)cc(c1OP(c1ccccc1)c1ccccc1)Cc1cc(C(C)(C)C)cc(c1OP(c1ccccc1)c1ccccc1)C2,> 50 µM,> 50 µM,,> 5 µM,44.6 µM,> 50 µM,> 50 µM,> 50 µM,> 50 µM,> 50 µM,44.6 µM,> 50 µM,> 50 µM,> 50 µM,> 50 µM,> 50 µM,> 50 µM,> 50 µM,> 50 µM,> 50 µM
NCC(=O)OCN1C(=O)C2C3C=CC(C2C1=O)C1C2C(=O)N(COC(=O)CN)C(=O)C2C31 (configuration not stated),,> 100 µM,,> 100 µM,,52.6 µM and 49.8 µM,,28.5 µM and 37.4 µM,,35.8 µM and 34.3 µM,,41.1 µM and 48.6 µM,,38.6 µM and 41.2 µM,,48.4 µM and 50.7 µM,,44.7 µM and 54.2 µM,25.9 µM,
COc1ccc2c3c([nH]c2c1[N+](=O)[O-])C(C)N(C(=O)/C=C/c1ccccc1)CC3 (configuration not stated),,8.31 µM,,> 100 µM,,> 100 µM,,7.01 µM,,> 100 µM,,4.75 µM,,> 100 µM,,> 100 µM,,> 100 µM,> 100 µM,
CNC1=C(Br)C(=O)C2=C(C1=O)C1C3=C(C(=O)C=CC3=O)C2c2ccccc21 (configuration not stated),24.9 µM,40.7 µM,6.14 µM,13.9 µM,0.472 µM,> 100 µM,2.18 µM,> 100 µM,18.6 µM,> 85.7 µM,6.7 µM,> 29.4 µM,11 µM,> 28.4 µM,1.65 µM,3.21 µM,2.79 µM,> 29.1 µM,> 22.4 µM,2.97 µM
COc1ccc(-n2nc(C)c3c(Nc4ccc(NC(=O)Nc5cc(C(F)(F)F)ccc5F)cc4)ncnc32)cc1,2.82 µM,7.18 µM,2.01 µM,6.87 µM,2.94 µM,> 100 µM,2.55 µM,6.67 µM,2.89 µM,8.7 µM,1.94 µM,> 100 µM,2.35 µM,4.91 µM,2.96 µM,42.9 µM,3.45 µM,22.6 µM,4.95 µM,3.24 µM
O=C(O)C1(C(=O)O)CCN(S(=O)(=O)c2ccccc2)CC1,,> 100 µM,,> 100 µM,,> 100 µM,,> 100 µM,,> 100 µM,,> 100 µM,,> 100 µM,,> 100 µM,,> 100 µM,> 100 µM,
C#Cc1cccc(N2C(=O)CC(=P(c3ccccc3)(c3ccccc3)c3ccccc3)C2=O)c1,,> 100 µM,,> 100 µM,,> 100 µM,,38.2 µM,,> 100 µM,,> 100 µM,,> 100 µM,,> 100 µM,,> 100 µM,> 100 µM,
